Literature values in patent US20070207944A1, “Blood Pressure Lowering Oligopeptides” (priority 2004, published 2007).

Experiments:
ACE = ACE (Homo sapiens, UniProt P12821); settings: for ACE inhibiting activity: in vitro, as reported in the literature
[1] = tested on: spontaneously hypertensive rats; settings: Nakamura et al. 1995, tripeptides from fermented milk

Chain of ACE (P12821 30-1306, species assumed): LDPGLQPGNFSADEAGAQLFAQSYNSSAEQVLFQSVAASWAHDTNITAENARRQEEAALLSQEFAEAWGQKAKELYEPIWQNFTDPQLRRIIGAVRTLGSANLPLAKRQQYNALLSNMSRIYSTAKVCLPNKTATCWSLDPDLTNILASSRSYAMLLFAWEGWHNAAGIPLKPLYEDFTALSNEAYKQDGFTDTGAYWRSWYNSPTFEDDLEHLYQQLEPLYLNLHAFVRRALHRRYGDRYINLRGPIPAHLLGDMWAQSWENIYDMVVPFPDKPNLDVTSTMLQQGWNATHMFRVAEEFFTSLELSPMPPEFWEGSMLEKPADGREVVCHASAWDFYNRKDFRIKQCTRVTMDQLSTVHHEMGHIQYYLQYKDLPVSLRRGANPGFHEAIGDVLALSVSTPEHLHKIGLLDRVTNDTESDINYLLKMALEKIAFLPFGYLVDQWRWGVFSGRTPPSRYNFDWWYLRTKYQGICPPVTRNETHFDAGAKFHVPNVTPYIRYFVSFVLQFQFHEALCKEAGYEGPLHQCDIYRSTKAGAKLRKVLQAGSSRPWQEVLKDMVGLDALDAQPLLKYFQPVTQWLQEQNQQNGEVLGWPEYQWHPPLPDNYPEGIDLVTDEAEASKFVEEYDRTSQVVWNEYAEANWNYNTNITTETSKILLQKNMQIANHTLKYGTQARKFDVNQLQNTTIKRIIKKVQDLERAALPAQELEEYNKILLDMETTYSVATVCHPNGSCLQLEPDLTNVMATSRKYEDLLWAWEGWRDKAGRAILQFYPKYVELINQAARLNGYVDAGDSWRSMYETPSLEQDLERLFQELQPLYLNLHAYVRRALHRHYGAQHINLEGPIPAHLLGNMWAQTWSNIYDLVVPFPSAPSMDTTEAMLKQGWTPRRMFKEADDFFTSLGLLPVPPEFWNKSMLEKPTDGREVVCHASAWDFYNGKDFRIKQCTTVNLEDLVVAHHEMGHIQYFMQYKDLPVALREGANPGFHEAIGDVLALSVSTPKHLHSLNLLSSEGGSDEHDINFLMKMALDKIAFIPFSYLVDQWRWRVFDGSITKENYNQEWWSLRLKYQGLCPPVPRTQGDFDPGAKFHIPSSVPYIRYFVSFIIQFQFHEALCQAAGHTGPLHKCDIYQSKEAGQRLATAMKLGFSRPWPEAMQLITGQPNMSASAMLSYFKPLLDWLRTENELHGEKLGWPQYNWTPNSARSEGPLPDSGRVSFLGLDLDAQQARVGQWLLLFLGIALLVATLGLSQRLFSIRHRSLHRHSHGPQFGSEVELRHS

Substance	ACE inhibiting activity (ACE)	antihypertensive effects [1]	IC50 (ACE; reported by EP 0 583 074, read-out: IC50 value (ACE inhibition)) [µM]
Ile-Pro-Pro [IPP]	Strong ACE inhibiting activities	could be confirmed	
Leu-Pro-Pro [LPP]	Strong ACE inhibiting activities		
Val-Pro-Pro [VPP]	Strong ACE inhibiting activities	could be confirmed	9
